Assay results: PMC6033896, “Discovery of Mcl-1 inhibitors from integrated high throughput and virtual screening” (Scientific Reports, 2018)
“And” between values parts separate entries of the source, which are not always exact repeats. Equal entries are not always repeated. “Also recorded” adds a separate entry of the source.

Tests used:
Mcl-1 protein [1] = target: T1, Mcl-1 protein (Homo sapiens, UniProt Q07820); experiment: SPR-based solution competitive binding assay, immobilized biotin-labelled Bim BH3 peptide; conditions: Mcl-1 20 nM; competition with immobilized Bim BH3 peptide
T1 construct: human Mcl-1 (residues 171–323); His tag (pHis-TEV vector) (N, cleaved yes); made in house; host or cells: E. coli BL21 (DE3)
Protocol: The solution competitive SPR-based assay was performed on Biacore 2000 in a similar way as was already reported. Briefly, N terminal biotin-labelled Bim BH3 peptide (141–166 amino acids) was immobilized on streptavidin (SA) chip giving a density of 800 RU (Response Units). The pre-incubated Mcl-1 protein (20 nM) with tested small-molecule inhibitors for at least 30 min was injected over the surfaces of the chip using assay buffer HBS-P (GE, #BR100368). Response units were measured at 15 s in the dissociation phase, and IC50 values were determined by nonlinear least-squares analysis using GraphPad Prism 6.0 software.

Mcl-1 protein [2] = target: T1, Mcl-1 protein; experiment: TR-FRET binding assay with Bid-Dy647 peptide; conditions: 10 nM Mcl-1, 10 nM Bid-Dy647
Protocol: TR-FRET was performed using black 384-well plates in an Envision Multilabel plate reader (Perkin Elmer Life Sciences). To each well, a mixture of 10 nM Bid-Dy647 peptide (79–99), 10 nM Mcl-1 protein, and Europium-anti-His antibody were added to a final volume of 25 μl in the assay buffer (20 mM potassium phosphate, pH 7.5; 50 mM NaCl, 1 mM EDTA and 0.05% Pluronic F68). The TR-FRET signals were measured with an Envision Multilabel plate reader after 2 h of incubation. (Ex 340 nm, Em615 nm and Em665 nm) and expressed as FRET signal ratio (F665 nm/[…] * 104)

[3] = test system: Bax/Bak double knockout (DKO) MEFs; experiment: MEF cell death, propidium iodide flow cytometry; type: cell-based, mouse
Protocol: (§1) MEF cells, including wild-type, Bax/Bak double knockout, Bax−/− single knockout, and Bak−/− single knockout were tested and characterized (Supplementary Fig. S3). The cells were cultured in DMEM (Life Technologies), supplemented with 10% fetal bovine serum (FBS) (Thermo Scientific HyClone) and 1% Penicillin/streptomycin solution (Life Technologies). The retrovirally transduced lymphoma cells isolated from Eμ-myc transgenic mice were provided by Ricky W. Johnstone at the University of Melbourne, Melbourne, Australia and cultured as previously described[37],[65].
(§2) MEFs were seeded in 24-well plates at 0.5 × 10^5 cells/well, left to adhere for 5 hours and then treated for 15 hours with increasing concentrations of the compounds. The cells were harvested, washed with phosphate-buffered saline (PBS) and stained with 0.025 mg/ml propidium iodide (MP Biomedicals). The percentage of the propidium iodide positive population was determined by flow cytometry and calculated using WinList 3.0.

wild-type MEFs = experiment: MEF cell death, propidium iodide flow cytometry; type: cell-based, mouse
Protocol: as §1, §2

endogenous Mcl-1 = target: T2, endogenous Mcl-1 (Homo sapiens, UniProt Q07820); experiment: Biotin-streptavidin pulldown with BL-Noxa, 2LMP whole cell lysate; type: binding
T2 construct: endogenous in cells; host or cells: 2LMP (subclone of MDA-MB-231), whole cell lysate
Protocol: 2LMP cells, a subclone of MDA-MB-231, were harvested (~15 × 10^6) and lysed via sonication with CHAPS buffer (10 mM HEPES pH 7.4, 2.5 mM EDTA, 150 mM NaCl, 1% (w/v) CHAPS, pH 7.4). […] Protein-peptide complexes were pulled down with agarose beads for 2 hrs. Beads were washed with CHAPS buffer and Mcl-1 protein was eluted by boiling in SDS-PAGE loading dye. Samples were analysed by western blotting with the Mcl-1 antibody (Thermo Scientific #MS-681-P1).

[4] = test system: Eµ-myc lymphoma cells overexpressing Bcl-2; experiment: Eµ-myc lymphoma cell viability, flow cytometry; type: cell-based, mice; conditions: increasing concentrations
Protocol: as §1
(§3) The Mcl-1, Bcl-2, and Bcl-xL retroviral transduced lymphoma Eμ-myc cells were seeded in 12-well plates at 0.5 × 10^6 cells/well. […] The cells were harvested and stained with violet LIVE/DEAD Fixable Dead Cell Stain Kit (Invitrogen) according to manufacturer’s protocol. The percentage of fluorescent positive cells was determined by flow cytometry and calculated using WinList 3.0.

[5] = test system: Eµ-myc lymphoma cells overexpressing Bcl-xL; experiment: Eµ-myc lymphoma cell viability, flow cytometry; type: cell-based, mice; conditions: increasing concentrations, 15 h
Protocol: as §1, §3

[6] = test system: Eµ-myc lymphoma cells overexpressing Mcl-1; experiment: Eµ-myc lymphoma cell viability, flow cytometry; type: cell-based, mice; conditions: increasing concentrations, 15 h
Protocol: as §1, §3

Mcl-1/Noxa interaction = test system: Mcl-1/Noxa interaction; parameters: method as in PubChem BioAssay AID 1417; conditions: Dose Response Confirmation for Mcl-1/Noxa Interaction Inhibitors; ref PubChem BioAssay AID 1417; cited from earlier work
[7] = increasing concentrations, 15 h
[8] = 100 µM of hits (15: 10, 20, 30 µM), 15-hour treatment, propidium iodide

T1 sequence (Q07820 171-323): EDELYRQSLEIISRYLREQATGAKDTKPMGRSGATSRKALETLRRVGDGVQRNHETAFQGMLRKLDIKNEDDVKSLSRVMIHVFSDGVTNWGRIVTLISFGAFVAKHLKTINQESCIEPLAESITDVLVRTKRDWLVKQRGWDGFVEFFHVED
T2 sequence (Q07820 whole entry): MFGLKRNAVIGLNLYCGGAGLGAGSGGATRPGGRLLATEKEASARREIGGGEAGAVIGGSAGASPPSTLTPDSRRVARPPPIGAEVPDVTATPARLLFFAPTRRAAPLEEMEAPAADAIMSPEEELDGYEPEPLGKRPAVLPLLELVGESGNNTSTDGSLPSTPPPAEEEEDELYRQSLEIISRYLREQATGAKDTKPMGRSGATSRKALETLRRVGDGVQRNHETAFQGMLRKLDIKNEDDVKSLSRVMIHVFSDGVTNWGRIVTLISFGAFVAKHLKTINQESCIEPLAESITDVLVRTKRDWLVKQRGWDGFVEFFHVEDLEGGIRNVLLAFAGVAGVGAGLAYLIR

SMILES	IC50 (Mcl-1 protein [1])	IC50 (Mcl-1 protein [2]) [µM]	cell death in Bax/Bak DKO MEFs [3, 7]	cell death in wild-type MEFs (wild-type MEFs; [7])	disruption of BL-Noxa binding to endogenous Mcl-1 (endogenous Mcl-1)	effect on Eµ-myc cells overexpressing Bcl-2 [4]	effect on Eµ-myc cells overexpressing Bcl-xL [5]	killing of Eµ-myc cells overexpressing Mcl-1 [6]	cell death induction in Bax/Bak DKO MEFs, screening of hits [3, 8]	cell death induction in wild-type MEFs, screening of hits (wild-type MEFs; [8])	IC50 (Mcl-1/Noxa interaction) [µM]
O=C(CSc1nnc(-c2ccco2)c(-c2ccco2)n1)Nc1cccc(C(F)(F)F)c1 [Compound 39]	6.3 ± 0.6 µM	7.1 ± 2.8	rescued the cells	induces Bax/Bak-dependent cell death; also recorded: dose-dependent increase in cell death	dose-dependent blocking	selectivity; also recorded: minimal effect	minimal effect	selective killing; also recorded: selectively kills Mcl-1 dependent cell lines			
c1ccc(CCCCSc2nnc(-c3ccco3)c(-c3ccco3)n2)cc1 [Compound 44]		2.5 ± 0.1			dose-dependent blocking	selectivity		killing			
O=C(CSc1nnc(-c2ccco2)c(-c2ccco2)n1)Nc1ccccc1 [Compound 19]	13 µM and 13.4 µM	11.9 ± 3.7							without significant cell death induction	inducing cell death	3.1
